Among the data in patent publication US12331026B2 (NiKang Therapeutics, Inc., priority 2022, dated 2025) are IC50 values, retold here.

SMILES strings stand for the structures.

The target of this assay is T1, CDK2 (Homo sapiens, UniProt P24941).
T1 construct: endogenous in cells; host or cells: OVCAR3 cells
In words: Phospho-RB measurement in OVCAR3 cells (HTRF phospho-RB S807/811). It counts as cell-based. As to conditions: phosphorylation of RB protein at S807/811, HTRF, 24 h compound treatment, 0.3 to 10,000 nM, read-out: pRb (uM). The method in brief: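 IC50 values come from four-parameter logistic fits of the DMSO-normalised 665/620 nm TR-FRET ratio for phospho-RB (S807/811). Antibody detection ran 4 h at room temperature.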
Background: TR-FRET usually uses a lanthanide donor and a delayed reading to cut background.
For `O=S1(=O)C[C@H]2C[C@H](Nc3nccc(-c4sc(C56CC(C5)C6)nc4-c4cccc(NS(=O)(=O)c5c(F)cccc5F)c4F)n3)C[C@H]2C1` [Example 152, N-(3-(2-(bicyclo[1.1.1]pentan-1-yl)-5-(2-(((3aR,5s,6aS)-2,2-dioxidohexahydro-1H-cyclopenta[c]thiophen-5-yl)amino)pyrimidin-4-yl)thiazol-4-yl)-2-fluorophenyl)-2,6-difluorobenzenesulfonamide], the IC50 came out at 0.15 µM. As to `O=S1(=O)C[C@@H]2[C@H](C1)[C@H]2Nc1nccc(-c2sc(N3C4CCC3CC(F)(F)C4)nc2-c2cccc(NS(=O)(=O)c3c(F)cccc3F)c2F)n1` [Example 115, N-(3-(2-(3,3-difluoro-8-azabicyclo[3.2.1]octan-8-yl)-5-(2-(((1R,5S,6r)-3,3-dioxido-3-thiabicyclo[3.1.0]hexan-6-yl)amino)pyrimidin-4-yl)thiazol-4-yl)-2-fluorophenyl)-2,6-difluorobenzenesulfonamide], the IC50 turned out to be 0.05 µM. Turning to `C[C@@H]1CN(C2CC(F)(F)C2)C[C@@H](C)N1c1nc(-c2cccc(NS(=O)(=O)c3c(F)cccc3F)c2F)c(-c2ccnc(NC3CC4(C3)CS(=O)(=O)C4)n2)s1` [Example 61, N-(3-(2-((2R,6R)-4-(3,3-difluorocyclobutyl)-2,6-dimethylpiperazin-1-yl)-5-(2-((2,2-dioxido-2-thiaspiro[3.3]heptan-6-yl)amino)-pyrimidin-4-yl)thiazol-4-yl)-2-fluorophenyl)-2,6-difluoro-benzenesulfonamide], the IC50 turned out to be 0.34 µM.

In the case of `C[C@H]1CNC[C@H](C)N1c1nc(-c2cccc(NS(=O)(=O)c3c(F)cccc3F)c2F)c(-c2ccnc(NC3CC4(C3)CS(=O)(=O)C4)n2)s1` [Example 62, N-(3-(2-((2S,6S)-2,6-dimethylpiperazin-1-yl)-5-(2-((2,2-dioxido-2-thiaspiro[3.3]heptan-6-yl)amino)pyrimidin-4-yl)thiazol-4-yl)-2-fluorophenyl)-2,6-difluorobenzenesulfonamide], the IC50 stood at 3.86 µM. For `O=S1(=O)CC2(CC(Nc3nccc(-c4sc(C5(C(F)F)CC5)nc4-c4cccc(NS(=O)(=O)c5c(F)cccc5F)c4F)n3)C2)C1` [Example 16, N-(3-(2-(1-(difluoromethyl)cyclopropyl)-5-(2-((2,2-dioxido-2-thiaspiro[3.3]heptan-6-yl)amino)pyrimidin-4-yl)thiazol-4-yl)-2-fluorophenyl)-2,6-difluorobenzenesulfonamide] the value was 0.13 µM; for `O=S1(=O)C[C@@H]2[C@H](C1)[C@H]2Nc1nccc(-c2sc(C3(C(F)F)CC3)nc2-c2cccc(NS(=O)(=O)c3c(F)cccc3OC(F)F)c2F)n1` [Example 129, 2-(difluoromethoxy)-N-(3-(2-(1-(difluoromethyl)cyclopropyl)-5-(2-(((1R,5S,6r)-3,3-dioxido-3-thiabicyclo[3.1.0]hexan-6-yl)amino)-pyrimidin-4-yl)thiazol-4-yl)-2-fluorophenyl)-6-fluorobenzene-sulfonamide], 0.09 µM; for `CC1(C)CCN1c1nc(-c2cccc(NS(=O)(=O)c3c(F)cccc3F)c2F)c(-c2ccnc(NC3CC4(C3)CS(=O)(=O)C4)n2)s1` [Example 29, N-(3-(2-(2,2-dimethylazetidin-1-yl)-5-(2-((2,2-dioxido-2-thiaspiro[3.3]heptan-6-yl)amino)pyrimidin-4-yl)thiazol-4-yl)-2-fluorophenyl)-2,6-difluorobenzenesulfonamide], 0.27 µM. With `O=S1(=O)CC2(CC(Nc3nccc(-c4sc(C5(C(F)(F)F)CC5)nc4-c4cccc(NS(=O)(=O)c5c(F)cccc5C(F)(F)F)c4F)n3)C2)C1` [Example 85, N-(3-(5-(2-((2,2-dioxido-2-thiaspiro[3.3]heptan-6-yl)amino)-pyrimidin-4-yl)-2-(1-(trifluoromethyl)cyclopropyl)thiazol-4-yl)-2-fluorophenyl)-2-fluoro-6-(trifluoromethyl)benzenesulfonamide] the figure was 0.03 µM; with `O=S1(=O)CC2(CC(Nc3nccc(-c4sc(N5C6CCC5CN(C5CCOC5)C6)nc4-c4cccc(NS(=O)(=O)c5c(F)cccc5F)c4F)n3)C2)C1` (centres unmarked) [Example 44, N-(3-(5-(2-((2,2-dioxido-2-thiaspiro[3.3]heptan-6-yl)amino)-pyrimidin-4-yl)-2-(3-(tetrahydrofuran-3-yl)-3,8-diazabicyclo-[3.2.1]octan-8-yl)thiazol-4-yl)-2-fluorophenyl)-2,6-difluoro-benzenesulfonamide], 0.66 µM; with `O=S1(=O)C[C@@H]2[C@H](C1)[C@H]2Nc1nccc(-c2sc(N3C4CCC3CN(C3CC3)C4)nc2-c2cccc(NS(=O)(=O)c3c(F)cccc3C(F)(F)F)c2F)n1` [Example 130, N-(3-(2-(3-cyclopropyl-3,8-diazabicyclo[3.2.1]octan-8-yl)-5-(2-(((1R,5S,6r)-3,3-dioxido-3-thiabicyclo[3.1.0]hexan-6-yl)amino)-pyrimidin-4-yl)thiazol-4-yl)-2-fluorophenyl)-2-fluoro-6-(trifluoromethyl)benzenesulfonamide], 0.45 µM.

Turning to `O=S1(=O)CC(N2CC3CCC(C2)N3c2nc(-c3cccc(NS(=O)(=O)c4c(F)cccc4F)c3F)c(-c3ccnc(NC4CC5(C4)CS(=O)(=O)C5)n3)s2)C1` [Example 45, N-(3-(5-(2-((2,2-dioxido-2-thiaspiro[3.3]heptan-6-yl)amino)-pyrimidin-4-yl)-2-(3-(1,1-dioxidothietan-3-yl)-3,8-diazabicyclo[3.2.1]octan-8-yl)thiazol-4-yl)-2-fluorophenyl)-2,6-difluorobenzenesulfonamide], the IC50 worked out at 4.14 µM.

Consider `O=S1(=O)CC2(CC(Nc3nccc(-c4sc(C56CC(F)(C5)C6)nc4-c4cccc(NS(=O)(=O)c5c(F)cccc5F)c4F)n3)C2)C1` [Example 7, N-(3-(5-(2-((2,2-dioxido-2-thiaspiro[3.3]heptan-6-yl)amino)pyrimidin-4-yl)-2-(3-fluorobicyclo[1.1.1]pentan-1-yl)thiazol-4-yl)-2-fluorophenyl)-2,6-difluorobenzenesulfonamide], for which the IC50 is 0.39 µM. For `C[C@H]1COC[C@H](C)N1c1nc(-c2cccc(NS(=O)(=O)c3c(F)cccc3F)c2F)c(-c2ccnc(N[C@H]3[C@@H]4CS(=O)(=O)C[C@@H]43)n2)s1` [Example 101, N-(3-(2-((3S,5S)-3,5-dimethylmorpholino)-5-(2-(((1R,5S,6r)-3,3-dioxido-3-thiabicyclo[3.1.0]hexan-6-yl)amino)pyrimidin-4-yl)thiazol-4-yl)-2-fluorophenyl)-2,6-difluorobenzenesulfonamide] the value was 0.17 µM; for `CN(C)C1CC2CCC(C1)N2c1nc(-c2cccc(NS(=O)(=O)c3c(F)cccc3F)c2F)c(-c2ccnc(NC3CC4(C3)CS(=O)(=O)C4)n2)s1` (centres unmarked) [Example 25, N-(3-(2-(3-(dimethylamino)-8-azabicyclo[3.2.1]octan-8-yl)-5-(2-((2,2-dioxido-2-thiaspiro[3.3]heptan-6-yl)amino)pyrimidin-4-yl)thiazol-4-yl)-2-fluorophenyl)-2,6-difluorobenzenesulfonamide], 1.55 µM; for `CC1CN(C)CC(C)N1c1nc(-c2cccc(NS(=O)(=O)c3c(F)cccc3F)c2F)c(-c2ccnc(NC3CC4(C3)CS(=O)(=O)C4)n2)s1` (centres unmarked) [Example 53, N-(3-(5-(2-((2,2-dioxido-2-thiaspiro[3.3]heptan-6-yl)amino)-pyrimidin-4-yl)-2-(2,4,6-trimethylpiperazin-1-yl)thiazol-4-yl)-2-fluorophenyl)-2,6-difluorobenzenesulfonamide], 0.04 µM. With `O=S1(=O)CC2(CC(Nc3nccc(-c4sc(C5(C(F)F)CC5)nc4-c4cccc(NS(=O)(=O)c5c(F)cccc5C(F)(F)F)c4F)n3)C2)C1` [Example 80, N-(3-(2-(1-(difluoromethyl)cyclopropyl)-5-(2-((2,2-dioxido-2-thiaspiro[3.3]heptan-6-yl)amino)pyrimidin-4-yl)thiazol-4-yl)-2-fluorophenyl)-2-fluoro-6-(trifluoromethyl)benzenesulfonamide] the figure was 0.06 µM. For `O=S1(=O)CC2(CC(Nc3nccc(-c4sc(C56CC(C(F)(F)F)(C5)C6)nc4-c4cccc(NS(=O)(=O)c5c(F)cccc5C(F)(F)F)c4F)n3)C2)C1` [Example 88, N-(3-(5-(2-((2,2-dioxido-2-thiaspiro[3.3]heptan-6-yl)amino)-pyrimidin-4-yl)-2-(3-(trifluoromethyl)bicyclo[1.1.1]pentan-1-yl)thiazol-4-yl)-2-fluorophenyl)-2-fluoro-6-(trifluoromethyl)-benzenesulfonamide] the value was 0.09 µM; for `O=S1(=O)CC2(CC(Nc3nccc(-c4sc(N5C6CCC5CN(C5COC5)C6)nc4-c4cccc(NS(=O)(=O)c5c(F)cccc5F)c4F)n3)C2)C1` [Example 144, N-(3-(5-(2-((2,2-dioxido-2-thiaspiro[3.3]heptan-6-yl)amino)-pyrimidin-4-yl)-2-(3-(oxetan-3-yl)-3,8-diazabicyclo[3.2.1]octan-8-yl)thiazol-4-yl)-2-fluorophenyl)-2,6-difluorobenzenesulfonamide], 0.24 µM; for `O=S1(=O)CC2(CC(Nc3nccc(-c4sc(C56CC(C(F)(F)F)(C5)C6)nc4-c4cccc(NS(=O)(=O)c5c(F)cccc5F)c4F)n3)C2)C1` [Example 39, N-(3-(5-(2-((2,2-dioxido-2-thiaspiro[3.3]heptan-6-yl)amino)-pyrimidin-4-yl)-2-(3-(trifluoromethyl)bicyclo[1.1.1]pentan-1-yl)thiazol-4-yl)-2-fluorophenyl)-2,6-difluorobenzenesulfonamide], 0.35 µM. Turning to `CC1CC(C)N1c1nc(-c2cccc(NS(=O)(=O)c3c(F)cccc3F)c2F)c(-c2ccnc(NC3CC4(C3)CS(=O)(=O)C4)n2)s1` (centres unmarked) [Example 71, N-(3-(2-(2,4-dimethylazetidin-1-yl)-5-(2-((2,2-dioxido-2-thiaspiro[3.3]heptan-6-yl)amino)pyrimidin-4-yl)thiazol-4-yl)-2-fluorophenyl)-2,6-difluorobenzenesulfonamide], the IC50 was determined as 18.9 µM.
